Among the data in ChEMBL document CHEMBL3044558, “Structure-activity relationship development of dihaloaryl triazole compounds as insecticides and acaricides. 1. Phenyl thiophen-2-yl triazoles” (2007) are mortality values, retold here.

Molecules are shown by their SMILES. The source made the active and inactive calls. No cut-off for these calls is given here. Bounds are passed on as bounds.

Test [1] relates to Heliothis virescens.
In test [2] the test system is Tetranychus urticae. As to the kind of experiment: Insecticidal activity against female Tetranychus urticae (two-spotted spider mite) infested cotton leaf disks followed by 2.5 ppm compound spraying after oviposit assessed as insect mortality measured after 6 days post compound application under green house conditions. The format is functional. Particulars: foliar, 144 h.

Test [3] deals with Aphis gossypii. Description: Insecticidal activity against Aphis gossypii (cotton aphid) infested one week old Crookneck squash plants assessed as insect mortality at 50 ppm measured after 3 days post compound application under green house conditions. The format is functional. To be noted: 72 h.
Test [4] deals with Trichoplusia ni. As to the kind of experiment: Insecticidal activity against Trichoplusia ni (cabbage looper) second-instar larvae infested on 400 ppm compound pre-treated cabbage leaf disk assessed as insect mortality measured 5 days post compound treatment under green house conditions. The format is functional. To be noted: at 400 ppm.
The test system of test [5] is Bemisia tabaci.
For test [6], the system named is Spodoptera exigua. As to the kind of experiment: Insecticidal activity against Spodoptera exigua second-instar larvae feeded on 400 ppm compound treated lepidopteran diet assessed as insect mortality measured 5 days post compound treatment under green house conditions. The format is functional. Particulars: at 400 ppm.
In test [7] the test system is Heliothis virescens. As to the kind of experiment: Insecticidal activity against Heliothis virescens (tobacco budworm) second-instar larvae infested on 400 ppm compound pre-treated cotton cotyledon disk assessed as insect mortality measured 5 days post compound treatment under green house conditions. It counts as functional.
Test [8] concerns Aphis gossypii.
The test system of test [9] is Trichoplusia ni.
Test [10] deals with Bemisia tabaci. Description: Insecticidal activity against Bemisia tabaci (sweet potato whitefly) second-instar larvae infested five weeks old cotton plants followed by compound 250 ppm compound spraying after insect oviposit assessed as insect mortality measured 13 days post compound treatment under green house conditions. The format is functional.
For test [11], the system named is Spodoptera exigua.
Test [12] deals with Tetranychus urticae.

For `COCCOc1cccc(-c2cc(C)c(-c3nc(-c4c(F)cccc4Cl)nn3C)s2)c1`, the mortality result with Heliothis virescens [1] and in the test with Bemisia tabaci [5] was “inactive” throughout. Further, the mortality – broadly, the percentage killed – at 2.5 ppm with Tetranychus urticae [2] is under 50%. The mortality at 50 ppm in the test on Aphis gossypii [3] was under 50%. The figures for the mortality in the test with Trichoplusia ni [4] and with Spodoptera exigua [6] were 70% and 80%, respectively.

As to `Cc1cc(C2CCC(O)CC2)sc1-c1nc(-c2c(F)cccc2Cl)nn1C` (configuration not stated), the mortality is on record as under 50% with Heliothis virescens [7] and 50% in the test with Bemisia tabaci [10]. Moreover, the mortality result with Aphis gossypii [8], in the test with Trichoplusia ni [9], in the test on Spodoptera exigua [11] and with Tetranychus urticae [12] was “inactive” throughout.

For the compound `Cc1ccc(-c2cc(Cl)c(-c3nc(-c4c(F)cccc4F)nn3C)s2)cc1`, the mortality in the test on Heliothis virescens [7] was 80%. Also, the mortality at 2.5 ppm in the test on Tetranychus urticae [2] was determined as 90%. The mortality entry with Aphis gossypii [8], in the test on Trichoplusia ni [9], in the test on Bemisia tabaci [5] and in the test on Spodoptera exigua [11] was “inactive” each time.

Take `Cn1nc(-c2c(F)cccc2F)nc1-c1ccc(-c2ccc(OC(F)(F)F)cc2)s1`: the mortality in the test with Heliothis virescens [7] and in the test on Trichoplusia ni [4] was 90% each time. Further, the mortality entry in the test on Aphis gossypii [8], with Bemisia tabaci [5], in the test on Spodoptera exigua [11] and with Tetranychus urticae [12] was “inactive” each time.

As to `Cc1cc(-c2ccc(Cl)c(Cl)c2)sc1-c1nc(-c2c(F)cccc2Cl)nn1C`, the mortality result in the test on Heliothis virescens [1], in the test on Aphis gossypii [8], with Bemisia tabaci [5] and in the test with Tetranychus urticae [12] was “inactive” each time. The mortality turned out to be 60% with Trichoplusia ni [4] and 70% with Spodoptera exigua [6].

In the case of `COc1ccc(-c2csc(-c3nc(-c4c(F)cccc4F)nn3C)c2)cc1`, the mortality result in the test on Heliothis virescens [1], in the test with Aphis gossypii [8] and with Tetranychus urticae [12] was “inactive” each time. For the same compound, the mortality with Trichoplusia ni [4] was 80%; in the test with Bemisia tabaci [10] it was 60%; in the test on Spodoptera exigua [6], 50%.

Take `COc1ccc(-c2ccc(-c3nc(-c4c(F)cccc4F)nn3C)s2)cc1`: the mortality result with Heliothis virescens [1], in the test on Aphis gossypii [8], in the test with Bemisia tabaci [5] and in the test on Tetranychus urticae [12] was “inactive” throughout. In addition, the mortality in the test with Trichoplusia ni [4] was under 50%; in the test with Spodoptera exigua [6] it was 90%.

With `Cn1nc(-c2c(F)cccc2Cl)nc1-c1cc(Br)c(-c2ccc(OC(F)(F)F)cc2)s1`, the mortality in the test on Heliothis virescens [7] is listed as 90%; in the test with Trichoplusia ni [4], 90%; in the test on Bemisia tabaci [10], under 50%. In the test on Tetranychus urticae [2], the mortality at 2.5 ppm came out at 90%. The mortality result in the test on Aphis gossypii [8] and in the test with Spodoptera exigua [11] was “inactive” throughout.

Regarding `Cn1nc(-c2c(F)cccc2Cl)nc1-c1ccc(-c2ccc(F)cc2)s1`, the mortality entry in the test with Heliothis virescens [1], in the test on Aphis gossypii [8] and in the test on Tetranychus urticae [12] was “inactive” in each case. The results for the mortality in the test on Trichoplusia ni [4], with Bemisia tabaci [10] and in the test on Spodoptera exigua [6] were 80%, under 50% and under 50%, respectively.

For `Cc1cc(C2CCC(OC(=O)C(F)(F)Br)CC2)sc1-c1nc(-c2c(F)cccc2Cl)nn1C` (configuration not stated), the mortality result in the test on Heliothis virescens [1], in the test with Aphis gossypii [8], with Trichoplusia ni [9] and in the test on Tetranychus urticae [12] was “inactive” throughout. Besides, the mortality with Spodoptera exigua [6] was under 50%.

Regarding `Cc1c(-c2nc(-c3c(F)cccc3Cl)nn2C)sc(-c2ccc(OC(F)(F)F)cc2)c1Br`, the mortality result with Heliothis virescens [1], with Aphis gossypii [8] and in the test with Bemisia tabaci [5] was “inactive” throughout. In the test on Tetranychus urticae [2], the mortality at 2.5 ppm was 90%. The mortality with Trichoplusia ni [4] and in the test with Spodoptera exigua [6] was 90% throughout.

As to `Cc1c(-c2nc(-c3c(F)cccc3Cl)nn2C)sc(Br)c1-c1ccc(OC(F)(F)F)cc1`, the mortality result in the test with Heliothis virescens [1], in the test on Aphis gossypii [8], in the test on Trichoplusia ni [9] and in the test with Bemisia tabaci [5] was “inactive” each time. In addition, in the test on Tetranychus urticae [2], the mortality at 2.5 ppm is 50%. Also, the mortality in the test on Spodoptera exigua [6] is 90%.

Turning to `Cn1nc(-c2c(F)cccc2Cl)nc1-c1cc(-c2ccc(Cl)cc2)c(Cl)s1`, the mortality entry in the test on Heliothis virescens [1], in the test on Aphis gossypii [8] and with Tetranychus urticae [12] was “inactive” each time. Besides, in the test on Spodoptera exigua [6], the mortality came to 50%.

For the compound `Cc1c(-c2ccc(C(F)(F)F)cc2)csc1-c1nc(-c2c(F)cccc2Cl)nn1C`, in the test with Heliothis virescens [1], the mortality entry is “inactive”. Also, the mortality at 2.5 ppm with Tetranychus urticae [2] came to 60%. Besides, the mortality at 50 ppm with Aphis gossypii [3] worked out at 60%. Besides, the mortality with Trichoplusia ni [4] is 90%; in the test on Bemisia tabaci [10] it was under 50%; in the test on Spodoptera exigua [6], 60%.

As to `Cn1nc(-c2c(F)cccc2Cl)nc1-c1ccc(-c2cccc(OC(F)(F)F)c2)s1`, the mortality entry with Heliothis virescens [1], with Aphis gossypii [8], in the test on Bemisia tabaci [5] and with Tetranychus urticae [12] was “inactive” in each case. Further, the mortality is 80% with Trichoplusia ni [4] and under 50% in the test on Spodoptera exigua [6].

On to `Cc1sc(-c2nc(-c3c(F)cccc3Cl)nn2C)c(C)c1-c1ccc(O)cc1`, for which the mortality with Heliothis virescens [7] and with Bemisia tabaci [10] was under 50% in each case. Besides, the mortality result with Aphis gossypii [8], in the test on Trichoplusia ni [9], in the test with Spodoptera exigua [11] and in the test with Tetranychus urticae [12] was “inactive” throughout.

As to `Cc1cc(C2=CCC(O)CC2)sc1-c1nc(-c2c(F)cccc2Cl)nn1C` (configuration not stated), the mortality with Heliothis virescens [7] and in the test on Bemisia tabaci [10] was under 50% in each case. Also, in the test with Aphis gossypii [3], the mortality at 50 ppm was under 50%. The mortality entry in the test with Trichoplusia ni [9], in the test on Spodoptera exigua [11] and in the test on Tetranychus urticae [12] was “inactive” in each case.

Regarding `Cn1nc(-c2c(F)cccc2Cl)nc1-c1cc(Br)c(-c2cccc(OC(F)(F)F)c2)s1`, the mortality result with Heliothis virescens [1], in the test with Aphis gossypii [8], in the test on Trichoplusia ni [9] and in the test with Tetranychus urticae [12] was “inactive” in each case. Besides, the mortality in the test on Bemisia tabaci [10] and with Spodoptera exigua [6] was under 50% each time.

In the case of `Cn1nc(-c2c(F)cccc2Cl)nc1-c1sc(-c2ccc(O)cc2)cc1Cl`, in the test on Heliothis virescens [7], the mortality is listed as 60%. The mortality at 50 ppm with Aphis gossypii [3] is under 50%. For the same compound, the mortality entry in the test with Trichoplusia ni [9], in the test on Bemisia tabaci [5], in the test on Spodoptera exigua [11] and in the test with Tetranychus urticae [12] was “inactive” throughout.

As for `Cc1cc(-c2ccc3c(c2)OC(F)(F)O3)sc1-c1nc(-c2c(F)cccc2Cl)nn1C`, the mortality result in the test on Heliothis virescens [1], in the test with Aphis gossypii [8], in the test with Trichoplusia ni [9] and in the test with Tetranychus urticae [12] was “inactive” throughout. Moreover, the mortality in the test on Bemisia tabaci [10] is under 50%; in the test on Spodoptera exigua [6] it was 80%.

In the case of `Cc1ccc(-c2sc(-c3nc(-c4c(F)cccc4Cl)nn3C)cc2Br)cc1`, the mortality result with Heliothis virescens [1], in the test with Aphis gossypii [8], in the test on Trichoplusia ni [9] and with Tetranychus urticae [12] was “inactive” in each case. Also, the mortality in the test on Bemisia tabaci [10] and in the test with Spodoptera exigua [6] was under 50% in each case.

`Cn1nc(-c2c(F)cccc2F)nc1-c1cc(-c2ccccc2)c(C(F)(F)F)s1`: the mortality result with Heliothis virescens [1], in the test with Aphis gossypii [8], in the test with Trichoplusia ni [9] and in the test on Tetranychus urticae [12] was “inactive” in each case. The mortality in the test with Spodoptera exigua [6] came out at 50%.

For the compound `Cn1nc(-c2c(F)cccc2Cl)nc1-c1cc(Br)c(-c2cccc(C(F)(F)F)c2)s1`, the mortality result in the test with Heliothis virescens [1], with Aphis gossypii [8], in the test on Trichoplusia ni [9], with Bemisia tabaci [5] and in the test on Tetranychus urticae [12] was “inactive” throughout. Besides, the mortality in the test with Spodoptera exigua [6] is on record as under 50%.

Regarding `Cc1c(-c2nc(-c3c(F)cccc3Cl)nn2C)sc(Cl)c1-c1ccc(OC(F)(F)F)cc1`, the mortality entry with Heliothis virescens [1], with Aphis gossypii [8] and with Trichoplusia ni [9] was “inactive” throughout. In the test on Tetranychus urticae [2], the mortality at 2.5 ppm amounted to 90%. Moreover, the mortality in the test on Bemisia tabaci [10] is under 50%; with Spodoptera exigua [6], 90%.

With `Cn1nc(-c2c(F)cccc2F)nc1-c1sc(-c2ccc(C(F)(F)F)cc2)cc1Cl`, the mortality in the test on Heliothis virescens [7] is recorded as 90%; with Trichoplusia ni [4], under 50%. Also, in the test with Tetranychus urticae [2], the mortality at 2.5 ppm was 90%. The mortality entry in the test with Aphis gossypii [8], in the test with Bemisia tabaci [5] and with Spodoptera exigua [11] was “inactive” each time.

As to `Cc1cc(C2=CCC(OC(F)(F)C(F)Br)CC2)sc1-c1nc(-c2c(F)cccc2Cl)nn1C` (configuration not stated), the mortality result in the test with Heliothis virescens [1], with Trichoplusia ni [9] and in the test on Tetranychus urticae [12] was “inactive” in each case. The mortality at 50 ppm in the test with Aphis gossypii [3] was under 50%. In addition, the mortality with Spodoptera exigua [6] is listed as under 50%.

For the compound `CCOc1ccc(-c2ccc(-c3nc(-c4c(F)cccc4Cl)nn3C)s2)cc1`, the mortality result in the test with Heliothis virescens [1], in the test with Aphis gossypii [8] and in the test on Tetranychus urticae [12] was “inactive” each time. The mortality is 90% with Trichoplusia ni [4], under 50% with Bemisia tabaci [10] and 80% in the test with Spodoptera exigua [6].
